The numbers were not newly measured in patent publication US20150269865A1, “SYSTEMS AND METHODS FOR PERSONALIZED NUTRIMERS” (priority 2014, published 2015), which cites them from elsewhere.

What is called bioavailability is the share of a dose that reaches the circulation, judged against a reference dose that is usually intravenous.

For data set [1] the following is noted: human, in vivo.
The conditions of data set [2]: in vivo.
The conditions of data set [3]: PMID23482308.
The conditions of data set [4]: PMID23482308. This is another data set of the same source.
Another data set addresses MTHFR (Homo sapiens, UniProt P42898). The note with it: cofactor of MTHFR or needs to be metabolized into Methyl folate.
For another data set, the system named is copper absorption. The note with it: PMID 1726403.
The conditions of data set [5]: human subject treated even for a few months; PMID 23751310.
For data set [6] the following is noted: PMID 9630738; compared with folic acid.
For data set [7] the following is noted: PMID 9630738.
The conditions of data set [8]: orally administered, human absorption kinetic studies, PMID 3257913.
For data set [9] the following is noted: in vivo. This is another data set of the same source.
The conditions of data set [10]: PMID 21735411; compared with Ergocalciferol (vitamin D2).

Chain of MTHFR (P42898 whole entry): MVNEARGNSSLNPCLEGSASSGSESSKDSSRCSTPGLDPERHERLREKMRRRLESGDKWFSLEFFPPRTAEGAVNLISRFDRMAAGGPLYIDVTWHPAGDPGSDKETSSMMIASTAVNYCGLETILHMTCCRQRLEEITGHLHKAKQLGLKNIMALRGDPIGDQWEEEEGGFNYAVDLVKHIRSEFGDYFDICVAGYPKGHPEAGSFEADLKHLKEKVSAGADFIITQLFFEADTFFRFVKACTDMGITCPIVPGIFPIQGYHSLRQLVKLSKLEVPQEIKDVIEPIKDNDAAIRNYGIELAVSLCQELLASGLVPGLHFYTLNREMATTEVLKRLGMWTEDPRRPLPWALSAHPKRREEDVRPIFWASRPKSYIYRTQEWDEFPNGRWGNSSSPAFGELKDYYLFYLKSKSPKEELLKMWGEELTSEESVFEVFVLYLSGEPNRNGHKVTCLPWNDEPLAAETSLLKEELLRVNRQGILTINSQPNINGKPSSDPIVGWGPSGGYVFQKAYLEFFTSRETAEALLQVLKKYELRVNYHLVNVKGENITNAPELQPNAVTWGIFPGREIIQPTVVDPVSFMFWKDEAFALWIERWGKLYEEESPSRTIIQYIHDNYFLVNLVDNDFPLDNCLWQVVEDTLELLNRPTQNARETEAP

For cobalamin [B12], in data set [1], the “B12 intake above which absorbance declines with increased supplementation” value was “about 10 mcg”.

Take Vitamin E: in data set [2], the “effect on absorption of desipramine (Norpramin)” value is listed as “interferes with the absorption”.

`Nc1nc2ncc(CNc3ccc(C(=O)N[C@@H](CCC(=O)O)C(=O)O)cc3)nc2c(=O)[nH]1` [Folic acid (FA), Folic acid]: the “Stability upon exposure to heat compared with natural forms of folate in the diet” value in data set [3] is recorded as “FA is more stable”. In addition, the “Side effects: masking of vitamin B12 deficiency” value in data set [4] is ““does not mask”. Also, at MTHFR, the Cofactor entry is recorded as “Not a cofactor”.

`[Zn]` [zinc]: in the data set with copper absorption, the “effect on copper absorption” value was “inhibits copper absorption”.

Regarding `CN(C)C(=N)N=C(N)N` [metformin], the “effect on vitamin B12 and folate levels” value in [5] is “decrease of vitamin B12 and folate”.

`Nc1nc(=O)c2c([nH]1)NCC(CNc1ccc(C(=O)N[C@@H](CCC(=O)O)C(=O)O)cc1)N2C=O` (mixture of isomers) [Folinic acid]: the Therapeutic effects entry in data set [6] was “more metabolically”. For the same compound, in [7], the “Stability: half-life in the body compared with folic acid” value is given as “longer half-life in”. For the same compound, the bioavailability in data set [8] is listed as 92%. In addition, the “transport through the blood brain barrier into the central nervous system” value in data set [9] is “readily transported”. For the same compound, the Cofactor result on MTHFR is recorded as “Not a cofactor”.

As to `C=C1CC[C@H](O)C/C1=C/C=C1\CCC[C@]2(C)[C@@H]([C@H](C)CCCC(C)C)CC[C@@H]12` [Cholecalciferol], in data set [10], the effect on mortality result is listed as “decrease mortality”.
